Tests used:
MCL-1 = MCL-1 (Homo sapiens (Human), UniProt Q07820); assay: Cell free Mcl-1:Bim affinity assay (fluorescence polarization competition); assay type: binding; settings: 15 nM MCL-1, 5 nM FITC-Bim, 1 hour at room temperature; class symbols; read-out: BIM_Ki
Procedure, shortened: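 Compounds competed with FITC-labelled Bim peptide (5 nM) for MCL-1 (15 nM) in HEPES/NaCl buffer with 1% DMSO, 1 h at room temperature. Fluorescence polarization (535 nm emission) gave % inhibition versus DMSO and positive controls; IC50 from 10-point curves, converted to Ki by the Nikolovska-Coleska equation.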

H929 cells = assay: Cell viability assay (H929 10 FBS); assay type: cell-based; settings: Homo sapiens, NCI-H929, 24 hours, read-out: H929_10FBS IC50
Procedure, shortened: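 H929 cells, 4000/well, in RPMI 1640 with 10% FBS, sodium pyruvate, HEPES and glucose were exposed to compound 24 h at 37 °C. Viability read as luminescence after 30-60 min at RT with CellTiter-Glo or ATPlite 1 Step.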

Chain of MCL-1 (Q07820 whole entry): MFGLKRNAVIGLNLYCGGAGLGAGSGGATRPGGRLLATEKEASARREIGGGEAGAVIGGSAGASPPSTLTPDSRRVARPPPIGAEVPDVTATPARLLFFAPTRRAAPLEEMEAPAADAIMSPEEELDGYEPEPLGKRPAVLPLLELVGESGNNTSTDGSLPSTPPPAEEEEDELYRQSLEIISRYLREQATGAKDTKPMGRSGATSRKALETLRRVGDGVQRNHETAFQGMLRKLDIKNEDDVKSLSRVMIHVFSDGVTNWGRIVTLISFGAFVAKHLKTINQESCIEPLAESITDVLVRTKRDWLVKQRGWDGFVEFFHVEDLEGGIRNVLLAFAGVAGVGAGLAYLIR

Row | SMILES | Ki (MCL-1) | IC50 (H929 cells)
1 | CN(C)C(=O)N(C)[C@H]1/C=C/COC(C)(C)C(=O)NS(=O)(=O)c2ccc3c(c2)N(C[C@@H]2CC[C@H]21)C[C@@]1(CCCc2cc(Cl)ccc21)CO3 [Example 257, 1,1,3-Trimethyl-3-[(3R,6R,7S,8E,22S)-6′-chloro-12,12-dimethyl-13,15,15-trioxo-spiro[11,20-dioxa-15-thia-1,14-diazatetracyclo[14.7.2.03,6.019,24]pentacosa-8,16(25),17,19(24)-tetraene-22,1′-tetralin]-7-yl]urea] | 1 to 100 nM | > 1000 nM
2 | CC1(C)OC/C=C/[C@H](OCCN2CC(F)(F)C2)[C@@H]2CC[C@H]2CN2C[C@@]3(CCCc4cc(Cl)ccc43)COc3ccc(cc32)S(=O)(=O)NC1=O [Example 258, (3R,6R,7S,8E,22S)-6′-Chloro-7-[2-(3,3-difluoroazetidin-1-yl)ethoxy]-12,12-dimethyl-15,15-dioxo-spiro[11,20-dioxa-15-thia-1,14-diazatetracyclo[14.7.2.03,6.019,24]pentacosa-8,16,18,24-tetraene-22,1′-tetralin]-13-one] | < 1 nM | < 500 nM
3 | CN1CCN(CCO[C@H]2/C=C/COC(C)(C)C(=O)NS(=O)(=O)c3ccc4c(c3)N(C[C@@H]3CC[C@H]32)C[C@@]2(CCCc3cc(Cl)ccc32)CO4)CC1 [Example 259, (3R,6R,7S,8E,22S)-6′-Chloro-12,12-dimethyl-7-[2-(4-methylpiperazin-1-yl)ethoxy]-15,15-dioxo-spiro[11,20-dioxa-15-thia-1,14-diazatetracyclo[14.7.2.03,6.019,24]pentacosa-8,16,18,24-tetraene-22,1′-tetralin]-13-one] | < 1 nM | < 500 nM
4 | CO[C@@H]1CCN(CCO[C@H]2/C=C/COC(C)(C)C(=O)NS(=O)(=O)c3ccc4c(c3)N(C[C@@H]3CC[C@H]32)C[C@@]2(CCCc3cc(Cl)ccc32)CO4)C1 [Example 260, (3R,6R,7S,8E,22S)-6′-Chloro-7-[2-[(3R)-3-methoxypyrrolidin-1-yl]ethoxy]-12,12-dimethyl-15,15-dioxo-spiro[11,20-dioxa-15-thia-1,14-diazatetracyclo[14.7.2.03,6.019,24]pentacosa-8,16,18,24-tetraene-22,1′-tetralin]-13-one] | < 1 nM | < 500 nM
5 | COC1CN(CCO[C@H]2/C=C/COC(C)(C)C(=O)NS(=O)(=O)c3ccc4c(c3)N(C[C@@H]3CC[C@H]32)C[C@@]2(CCCc3cc(Cl)ccc32)CO4)C1 [Example 261, (3R,6R,7S,8E,22S)-6′-Chloro-7-[2-(3-methoxyazetidin-1-yl)ethoxy]-12,12-dimethyl-15,15-dioxo-spiro[11,20-dioxa-15-thia-1,14-diazatetracyclo[14.7.2.03,6.019,24]pentacosa-8,16,18,24-tetraene-22,1′-tetralin]-13-one] | < 1 nM | < 500 nM
6 | CC1(C)OC/C=C/[C@H](OCCN2CCC2)[C@@H]2CC[C@H]2CN2C[C@@]3(CCCc4cc(Cl)ccc43)COc3ccc(cc32)S(=O)(=O)NC1=O [Example 262, (3R,6R,7S,8E,22S)-7-[2-(Azetidin-1-yl)ethoxy]-6′-chloro-12,12-dimethyl-15,15-dioxo-spiro[11,20-dioxa-15-thia-1,14-diazatetracyclo[14.7.2.03,6.019,24]pentacosa-8,16,18,24-tetraene-22,1′-tetralin]-13-one] | < 1 nM | < 500 nM
7 | CC1(C)OC/C=C/[C@H](OCCN2CCCCC2)[C@@H]2CC[C@H]2CN2C[C@@]3(CCCc4cc(Cl)ccc43)COc3ccc(cc32)S(=O)(=O)NC1=O [Example 263, (3R,6R,7S,8E,22S)-6′-Chloro-12,12-dimethyl-15,15-dioxo-7-[2-(1-piperidyl)ethoxy]spiro[11,20-dioxa-15-thia-1,14-diazatetracyclo[14.7.2.03,6.019,24]pentacosa-8,16,18,24-tetraene-22,1′-tetralin]-13-one] | < 1 nM | < 500 nM
8 | CC1(C)OC/C=C/[C@H](OCCN2CC[C@@H](F)C2)[C@@H]2CC[C@H]2CN2C[C@@]3(CCCc4cc(Cl)ccc43)COc3ccc(cc32)S(=O)(=O)NC1=O [Example 264, (3R,6R,7S,8E,22S)-6′-Chloro-7-[2-[(3R)-3-fluoropyrrolidin-1-yl]ethoxy]-12,12-dimethyl-15,15-dioxo-spiro[11,20-dioxa-15-thia-1,14-diazatetracyclo[14.7.2.03,6.019,24]pentacosa-8,16,18,24-tetraene-22,1′-tetralin]-13-one] | < 1 nM | < 500 nM

Results, then the compound that gave them:

Row | Ki (MCL-1) | IC50 (H929 cells) | SMILES
9 | 1 to 100 nM | < 500 nM | CC1(C)OC/C=C/[C@H](OCCN2CC[C@H](F)C2)[C@@H]2CC[C@H]2CN2C[C@@]3(CCCc4cc(Cl)ccc43)COc3ccc(cc32)S(=O)(=O)NC1=O [Example 265, (3R,6R,7S,8E,22S)-6′-Chloro-7-[2-[(3S)-3-fluoropyrrolidin-1-yl]ethoxy]-12,12-dimethyl-15,15-dioxo-spiro[11,20-dioxa-15-thia-1,14-diazatetracyclo[14.7.2.03,6.019,24]pentacosa-8,16,18,24-tetraene-22,1′-tetralin]-13-one]
10 | < 1 nM | < 500 nM | CO[C@@H]1CCN(C(=O)O[C@H]2/C=C/COC(C)(C)C(=O)NS(=O)(=O)c3ccc4c(c3)N(C[C@@H]3CC[C@H]32)C[C@@]2(CCOc3cc(Cl)ccc32)CO4)C1 [Example 266, [(3R,6R,7S,8E,22S)-7′-Chloro-12,12-dimethyl-13,155-trioxo-spiro[11,20-dioxa-15-thia-1,14-diazatetracyclo[14.7.2.03,6.019,24]pentacosa-8,16,18,24-tetraene-22,4′-chromane]-7-yl] (3R)-3-methoxypyrrolidine-1-carboxylate]
11 | 1 to 100 nM | < 1000 nM | CON(C)CCO[C@H]1/C=C/COC(C)(C)C(=O)NS(=O)(=O)c2ccc3c(c2)N(C[C@@H]2CC[C@H]21)C[C@@]1(CCCc2cc(Cl)ccc21)CO3 [Example 267, (3R,6R,7S,8E,22S)-6′-Chloro-7-[2-[methoxy(methyl)amino]ethoxy]-12,12-dimethyl-15,15-dioxo-spiro[11,20-dioxa-15-thia-1,14-diazatetracyclo[14.7.2.03,6.019,24]pentacosa-8,16,18,24-tetraene-22,1′-tetralin]-13-one]
12 | < 1 nM | < 500 nM | CCN(CC)CCO[C@H]1/C=C/COC(C)(C)C(=O)NS(=O)(=O)c2ccc3c(c2)N(C[C@@H]2CC[C@H]21)C[C@@]1(CCCc2cc(Cl)ccc21)CO3 [Example 268, (3R,6R,7S,8E,22S)-6′-Chloro-7-[2-(diethylamino)ethoxy]-12,12-dimethyl-15,15-dioxo-spiro[11,20-dioxa-15-thia-1,14-diazatetracyclo[14.7.2.03,6.019,24]pentacosa-8,16,18,24-tetraene-22,1′-tetralin]-13-one]
13 | < 1 nM | < 500 nM | CC1(C)OC/C=C/[C@H](OCCN2C[C@@H](F)[C@@H](F)C2)[C@@H]2CC[C@H]2CN2C[C@@]3(CCCc4cc(Cl)ccc43)COc3ccc(cc32)S(=O)(=O)NC1=O [Example 269, (3R,6R,7S,8E,22S)-6′-Chloro-7-[2-[(3R,4S)-3,4-difluoropyrrolidin-1-yl]ethoxy]-12,12-dimethyl-15,15-dioxo-spiro[11,20-dioxa-15-thia-1,14-diazatetracyclo[14.7.2.03,6.019,24]pentacosa-8,16,18,24-tetraene-22,1′-tetralin]-13-one]
14 | < 1 nM | < 500 nM | CC1(C)OC/C=C/[C@H](OCCN2CCOCC2)[C@@H]2CC[C@H]2CN2C[C@@]3(CCCc4cc(Cl)ccc43)COc3ccc(cc32)S(=O)(=O)NC1=O [Example 270, (3R,6R,7S,8E,22S)-6′-Chloro-12,12-dimethyl-7-(2-morpholinoethoxy)-15,15-dioxo-spiro[11,20-dioxa-15-thia-1,14-diazatetracyclo[14.7.2.03,6.019,24]pentacosa-8,16,18,24-tetraene-22,1′-tetralin]-13-one]
15 | < 1 nM | < 500 nM | CC1(C)OC/C=C/[C@@H](OCCN2CCOCC2)[C@@H]2CC[C@H]2CN2C[C@@]3(CCCc4cc(Cl)ccc43)COc3ccc(cc32)S(=O)(=O)NC1=O [Example 271, (3R,6R,7R,8E,22S)-6′-Chloro-12,12-dimethyl-7-(2-morpholinoethoxy)-15,15-dioxo-spiro[11,20-dioxa-15-thia-1,14-diazatetracyclo[14.7.2.03,6.019,24]pentacosa-8,16,18,24-tetraene-22,1′-tetralin]-13-one]
16 | < 1 nM | < 500 nM | CC1(C)OC/C=C/[C@@H](OCCN2CC(F)(F)C2)[C@@H]2CC[C@H]2CN2C[C@@]3(CCCc4cc(Cl)ccc43)COc3ccc(cc32)S(=O)(=O)NC1=O [Example 272, (3R,6R,7R,8E,22S)-6′-Chloro-7-[2-(3,3-difluoroazetidin-1-yl)ethoxy]-12,12-dimethyl-15,15-dioxo-spiro[11,20-dioxa-15-thia-1,14-diazatetracyclo[14.7.2.03,6.019,24]pentacosa-8,16,18,24-tetraene-22,1′-tetralin]-13-one]
17 | < 1 nM | < 1000 nM | CN(C)CCO[C@@H]1/C=C/COC(C)(C)C(=O)NS(=O)(=O)c2ccc3c(c2)N(C[C@@H]2CC[C@H]21)C[C@@]1(CCCc2cc(Cl)ccc21)CO3 [Example 273, (3R,6R,7R,8E,22S)-6′-Chloro-7-[2-(dimethylamino)ethoxy]-12,12-dimethyl-15,15-dioxo-spiro[11,20-dioxa-15-thia-1,14-diazatetracyclo[14.7.2.03,6.019,24]pentacosa-8,16,18,24-tetraene-22,1′-tetralin]-13-one]
